Bounds are passed on as bounds.

The subject of assay [1] is OP91 in HeLa TRex Flp-In cells. Briefly: Steady state OP91 (model MLP) levels on co-expression, quantitative western blotting. The settings on record: co-expression of SGTA-V5 compared with K160E/R164E mutant or PEX19 control; normalised to tubulin; n = 3; 24 h transfection, 24 h induction. Format: cell-based. The text has this: However, the ability of exogenous SGTA to enhance steady state MLP levels is offset when key residues of the carboxylate clamp, located in its TPR domain, are mutated. […] These finding are consistent with the proposal that a TPR based interaction of exogenous SGTA contributes to its effects on steady state MLP levels. […]
Figure 5 The SGTA-Rpn13 interaction alters steady state levels of a model MLP. […] Cells were then harvested directly into sample buffer and analysed by western blotting using primary antibodies to the N-terminus of opsin (OP91), the V5 tag (PEX19 and SGTA) or tubulin (loading control) in combination with secondary antibodies labelled with infrared dyes (LiCor) in order to produce quantitative signals as previously described. (B) OP91 signals were quantified (see Materials and Methods) and normalised to the tubulin loading control, values show standard errors for n = 3. […] (F) OP91 signals were quantified as described for (B), values show standard errors for n = 3. […]
For orientation: Immunoblotting shows a protein as a band on a membrane.

Assay [2] has as its system OP91 in HeLa TRex Flp-In cells. The settings on record: overexpression of exogenous SGTA, model MLPs including OP91; cited from earlier work. The text has this:
However, the ability of exogenous SGTA to enhance steady state MLP levels is offset when key residues of the carboxylate clamp, located in its TPR domain, are mutated. We recapitulated this experiment ...

The target in assay [3] is T1, TPR domain of SGTA (SGTA_TPR) (Homo sapiens, UniProt O43765).
T1 construct: thioredoxin A (TxA) fusion (N, cleaved yes); hexahistidine tag (N, cleaved yes); made in house; host or cells: E. coli BL21(DE3) Rosetta
The experiment in a line: Paramagnetic relaxation enhancement (PRE) of 15N-labelled SGTA_TPR by MTSL labelled K398C Rpn13_260-407. It is filed as binding. The settings on record: MTSL at K398C; 15N-labelled SGTA_TPR to spin labelled Rpn13 1:1.2; pH 6.0; residues Met-102, Lys-103, Glu-105, Lys-137, Ser-170, Asn-173, Ser-197, Lys-200, Ile-201, Glu-203, Ser-211. The procedure:
Using CSP experiments combined with available mutagenesis data, an initial model of a 1:1 complex was generated by a HADDOCK based semi-rigid, data-driven approach using the DMSLD pentapeptide coordinates from the solution NMR structure of Rpn13 (PDB accession code: 2KR0) and the crystal structure of SGTA_TPR (PDB accession code: 2VYI). The three lowest energy HADDOCK clusters of the SGTA_TPR/DMSLD complex were analysed (Figure S7 and Table S1). […] Proximity dependent line broadening of ^15N-labelled SGTA_TPR backbone amide signals was monitored for intermolecular paramagnetic relaxation enhancement (PRE) effects upon addition of MTSL labelled K398C Rpn13_260-407 (Fig. 4B). Significant line broadening effects were observed upon binding in backbone amide peaks of SGTA_TPR residues Met-102, Lys-103, Glu-105, Lys-137, Ser-170, Asn-173, Ser-197, Lys-200, Ile-201, Glu-203, Ser-211, all present on the lower edge of its concave surface lining the entry to the central groove (Fig. 4C,D).
The Rpn13 C-terminal residue Lys 398 was mutated to a cysteine for paramagnetic spin labelling studies. Mutant Rpn13_260-407 was treated with excess TCEP for 2 hours to ensure cysteines were reduced, followed by dialysis against 10 mM potassium phosphate pH 6.0, 100 mM NaCl buffer to remove excess TCEP. […]

T1 sequence (O43765 84-211): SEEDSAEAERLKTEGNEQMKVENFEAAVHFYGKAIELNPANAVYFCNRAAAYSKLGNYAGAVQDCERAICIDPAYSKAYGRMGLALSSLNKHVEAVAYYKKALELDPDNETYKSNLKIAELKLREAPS

On to “SGTA-V5: exogenous V5-tagged SGTA overexpressed from plasmid”, for which, in assay [1], the “change in steady state OP91 level” value is “three-fold increase”. For the same molecule, the “steady state MLP levels, earlier studies” value in assay [2] was “typically increases the steady-state levels of model MLPs”.

B1: K398C Rpn13_260-407: Rpn13_260-407 K398C mutant carrying site-directed paramagnetic spin-label (MTSL) (protein, UniProt Q16186 260-407, looked up, variant K398C)
chain: QPIQLSDLQSILATMNVPAGPAGGQQVDLASVLTPEIMAPILANADVQERLLPYLPSGESLPQTADEIQNTLTSPQFQQALGMFSAALASGQLGPLMCQFGLPAEAVEAANKGDVEAFAKAMQNNAKPEQKEGDTKDKCDEEEDMSLD
modifications: MTSL spin label
B1: the “distance of paramagnetic probe from SGTA_TPR residues with significant line broadening” value in assay [3] is listed as at most 20 Å.

These data come from publication PMC5101480 (Scientific Reports, 2016).
